Legend:
[1] = tested on: mouse FL5.12 cells transfected with Bcl-XL; assay: FL5.12 cellular assay (cell viability, CellTiter-Glo); type: cell-based; conditions: Mus musculus; FL5.12 cells transfected with Bcl-XL, IL-3-depleted, 3% FBS assay media, 24 hours, CellTiter-Glo; read-out: FL5.12 Bcl-xL, - IL3, EC 50;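 further: each EC50 determination derived from duplicate measurements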
Description: For assaying the compound activity, the cells were exchanged into an IL-3-depleted deprivation media, which was identical to the growth media except for the absence of FBS and WEHI-3B conditional media, for 2 days. Then the cells were exchanged to 3% FBS assay media (RPMI with 2 mM glutamine, 1% 100 mM sodium pyruvate, 2% 1 M HEPES, 4 µL/L of β-mercaptoethanol, 1% penicillin-streptomycin, 3% FBS). Compounds in series dilutions were added, and the cells were cultured for 24 hours. Compounds in series dilutions were added, and the cells were cultured for 24 hours. Cell viability was assayed using the CellTiter-Glo assay (Promega Corp., Madison, WI) according to the manufacturer instructions. Individual determinations were the result of duplicate values.

[2] = target: T1, GST-Bcl-2 (Homo sapiens, UniProt P10415); conditions: F-Bak probe, read-out: Ki, competition with F-Bak for the Bcl-2 binding site using the TR-FRET binding assay
T1 construct: made in house
T1 sequence (P10415 whole entry): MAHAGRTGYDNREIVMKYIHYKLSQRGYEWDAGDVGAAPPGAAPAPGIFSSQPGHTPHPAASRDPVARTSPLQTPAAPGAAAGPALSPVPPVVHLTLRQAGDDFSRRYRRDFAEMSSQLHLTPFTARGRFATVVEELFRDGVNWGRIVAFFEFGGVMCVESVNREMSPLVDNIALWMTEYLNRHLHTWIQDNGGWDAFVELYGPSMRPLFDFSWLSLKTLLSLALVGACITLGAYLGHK

[3] = target: GST-Bcl-xL (Homo sapiens, UniProt Q07817); conditions: read-out: TR-FRET binding Bcl-xL Ki
Sequence of GST-Bcl-xL (Q07817 whole entry): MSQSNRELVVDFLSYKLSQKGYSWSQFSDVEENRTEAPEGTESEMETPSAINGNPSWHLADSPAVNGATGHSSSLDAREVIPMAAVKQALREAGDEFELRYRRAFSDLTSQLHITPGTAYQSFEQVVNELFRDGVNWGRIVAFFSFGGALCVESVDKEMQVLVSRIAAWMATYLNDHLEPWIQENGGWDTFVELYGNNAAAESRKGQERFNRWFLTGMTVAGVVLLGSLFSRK

| SMILES | EC50 [1] [nM] | Ki [2] [nM] | Ki [3] [nM] |
| --- | --- | --- | --- |
| Cc1c(-c2ccc(N3CCc4cccc(C(=O)Nc5nc6ccccc6s5)c4C3)nc2C(=O)O)cnn1Cc1ccccc1 [Example 20, 6-[8-(1,3-benzothiazol-2-ylcarbamoyl)-3,4-dihydroisoquinolin-2(1H)-yl]-3-(1-benzyl-5-methyl-1H-pyrazol-4-yl)pyridine-2-carboxylic acid] | 13 | 70 | 2 |
| N#Cc1c(-c2ccc(N3CCc4cccc(C(=O)Nc5nc6ccccc6s5)c4C3)nc2C(=O)O)cccc1N1CCCC1C12CC3CC(CC(C3)C1)C2 (stereo not shown) [Example 182, 6-[8-(1,3-benzothiazol-2-ylcarbamoyl)-3,4-dihydroisoquinolin-2(1H)-yl]-3-{2-cyano-3-[2-(tricyclo[3.3.1.1^3,7]dec-1-yl)pyrrolidin-1-yl]phenyl}pyridine-2-carboxylic acid] | 6 |  | 0.2 |
| Cc1c(-c2ccc(N3CCc4cccc(C(=O)Nc5nc6ccccc6s5)c4C3)nc2C(=O)O)ccnc1N1CCCCC1 [Example 183, 6-[8-(1,3-benzothiazol-2-ylcarbamoyl)-3,4-dihydroisoquinolin-2(1H)-yl]-3'-methyl-2'-(piperidin-1-yl)-3,4'-bipyridine-2-carboxylic acid] | 507 |  | 0.7 |
| COCCC(C1CCCCC1)n1ncc(-c2ccc(N3CCc4cccc(C(=O)Nc5nc6ccccc6s5)c4C3)nc2C(=O)O)c1C (stereo not shown) [Example 184, 6-[8-(1,3-benzothiazol-2-ylcarbamoyl)-3,4-dihydroisoquinolin-2(1H)-yl]-3-[1-(1-cyclohexyl-3-methoxypropyl)-5-methyl-1H-pyrazol-4-yl]pyridine-2-carboxylic acid] | 2 |  | < 0.1 |
| O=C(Nc1nc2ccccc2s1)c1cccc2c1CN(c1ccc(-c3cccc4c3cnn4Cc3ccccc3)c(C(=O)O)n1)CC2 [Example 187, 6-[8-(1,3-benzothiazol-2-ylcarbamoyl)-3,4-dihydroisoquinolin-2(1H)-yl]-3-(1-benzyl-1H-indazol-4-yl)pyridine-2-carboxylic acid] | 318 |  | 0.4 |
| O=C(Nc1nc2ccccc2s1)c1cccc2c1CN(c1ccc(-c3cn(Cc4ccccc4)c4cnccc34)c(C(=O)O)n1)CC2 [Example 188, 6-[8-(1,3-benzothiazol-2-ylcarbamoyl)-3,4-dihydroisoquinolin-2(1H)-yl]-3-(1-benzyl-1H-pyrrolo[2,3-c]pyridin-3-yl)pyridine-2-carboxylic acid] | 546 |  | 0.5 |
